Laboratory results published in US12150995B2, “IRAK degraders and uses thereof” (Kymera Therapeutics, Inc., priority 2020, dated 2024).

Target: T1, IRAK4 (Homo sapiens, UniProt Q9NWZ3)
T1 construct: endogenous in cells; host or cells: OCI-LY10
T1 sequence (Q9NWZ3 1-460): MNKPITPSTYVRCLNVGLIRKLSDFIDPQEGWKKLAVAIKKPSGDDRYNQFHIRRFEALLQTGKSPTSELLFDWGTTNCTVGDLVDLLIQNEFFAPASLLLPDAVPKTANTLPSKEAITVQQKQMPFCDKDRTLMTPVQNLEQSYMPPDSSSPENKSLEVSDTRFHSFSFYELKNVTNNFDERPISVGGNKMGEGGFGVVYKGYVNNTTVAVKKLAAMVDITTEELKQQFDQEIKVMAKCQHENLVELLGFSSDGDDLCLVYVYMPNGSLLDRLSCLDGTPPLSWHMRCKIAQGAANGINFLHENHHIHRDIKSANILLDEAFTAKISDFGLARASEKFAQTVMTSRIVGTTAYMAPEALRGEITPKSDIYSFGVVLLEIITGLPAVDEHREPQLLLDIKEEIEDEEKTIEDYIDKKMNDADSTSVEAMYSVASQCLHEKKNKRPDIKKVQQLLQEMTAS
Assay: IRAK4 MSD Degradation in OCI-LY10
Type: cell-based
Conditions: OCI-LY10 cells, Meso Scale Discovery, incubated 4 to 24 hours
Procedure, shortened: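 OCI-LY10 cells (300,000/well) exposed to an 8-point 1:3 series from a top concentration of 1 to 10 μM for 4 to 24 h at 37 °C. IRAK4 remaining in RIPA lysates quantified by MSD sandwich immunoassay; DC50 from a three-parameter logistic fit.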

| SMILES | DC50 |
| --- | --- |
| Cn1c(=O)n(C2CCC(=O)NC2=O)c2cccc(N3CC4CC(C3)N4C[C@H]3CC[C@H](n4cc5cc(NC(=O)c6cccc(C(F)(F)F)n6)c(C(C)(C)O)cc5n4)CC3)c21 (some centres unmarked) [I-232] | < 10 nM |
| COc1cc2nn([C@H]3CC[C@H](CN4CCN(c5cccc6c(N7CCC(=O)NC7=O)cncc56)[C@@H](C)C4)CC3)cc2cc1NC(=O)c1cccc(C(F)(F)F)n1 [I-233] | < 10 nM |
| COc1cc2nc([C@H]3C[C@H](CN4CCC(c5cccc6c5n(C)c(=O)n6C5CCC(=O)NC5=O)CC4)C3)sc2cc1NC(=O)c1cccc(C(F)(F)F)n1 (some centres unmarked) [I-235] | 50 to 100 nM |
| COc1cc2nn(C3CCN(C[C@H]4CC[C@H](c5cccc6c5n(C)c(=O)n6C5CCC(=O)NC5=O)CC4)CC3)cc2cc1NC(=O)c1cccc(C(F)(F)F)n1 (some centres unmarked) [I-237] | 10 to 50 nM |
| CN(C[C@H]1CC[C@H](n2cc3cc(NC(=O)c4cccc(C(F)(F)F)n4)ncc3n2)CC1)C1CCN(c2cccc3c2n(C)c(=O)n3C2CCC(=O)NC2=O)CC1 (some centres unmarked) [I-238] | < 10 nM |
| CN(C[C@H]1CC[C@H](n2cc3cc(NC(=O)c4cccc(C(F)(F)F)n4)c(C#N)cc3n2)CC1)C1CCN(c2cccc3c2n(C)c(=O)n3C2CCC(=O)NC2=O)CC1 (some centres unmarked) [I-239] | < 10 nM |
| Cn1c(=O)n(C2CCC(=O)NC2=O)c2cccc(C3CCN(C[C@H]4CC[C@H](n5cc6cc(NC(=O)c7cccc(C(F)(F)F)n7)cc(F)c6n5)CC4)CC3)c21 (some centres unmarked) [I-240] | < 10 nM |
| O=C1CCN(c2cncc3cc(C4CCN(C[C@H]5CC[C@H](c6nc7cnc(NC(=O)c8cccc(C(F)(F)F)n8)cc7s6)CC5)CC4)ccc23)C(=O)N1 [I-241] | > 200 nM |
| Cn1c(=O)n(C2CCC(=O)NC2=O)c2cccc(C3CCN(C[C@H]4CC[C@H](c5cc6cc(NC(=O)c7cccc(C(F)(F)F)n7)ccn6n5)CC4)CC3)c21 (some centres unmarked) [I-242] | < 10 nM |
| COc1cc2nn([C@H]3CC[C@H](CN4CCN(c5cccc6c5n(C)c(=O)n6C5CCC(=O)NC5=O)C[C@H]4C)CC3)cc2cc1NC(=O)c1cccc(C(F)(F)F)n1 (some centres unmarked) [I-243] | < 10 nM |
| COc1cc2nn([C@H]3CC[C@H](CN4CC5(CN(Cc6cccc7c6n(C)c(=O)n7C6CCC(=O)NC6=O)C5)C4)CC3)cc2cc1NC(=O)c1cncc(C#N)c1 (some centres unmarked) [I-244] | 100 to 200 nM |
| COc1ccc2c(c1C1CCN(C[C@H]3CC[C@H](n4cc5cc(NC(=O)c6cccc(C(F)(F)F)n6)ncc5n4)CC3)CC1)n(C)c(=O)n2C1CCC(=O)N(C)C1=O (some centres unmarked) [I-245] | > 200 nM |
| COc1cc2nn([C@H]3CC[C@H](CN4CCN(c5cccc6c5n(C)c(=O)n6C5CCC(=O)NC5=O)C[C@@H]4C)CC3)cc2cc1NC(=O)c1cccc(C(F)(F)F)n1 (some centres unmarked) [I-246] | 10 to 50 nM |
| Cn1c(=O)n(C2CCC(=O)NC2=O)c2cccc(C3CCN(C[C@H]4CC[C@H](n5cc6cc(NC(=O)c7ncc(Cl)s7)ccc6n5)CC4)CC3)c21 (some centres unmarked) [I-247] | > 200 nM |
| C[C@H]1CN(c2cccc3c2n(C)c(=O)n3C2CCC(=O)NC2=O)CCN1C[C@H]1CC[C@H](n2cc3cc(NC(=O)c4cccc(C(F)(F)F)n4)ccc3n2)CC1 (some centres unmarked) [I-248] | < 10 nM |
| CN(C[C@H]1CC[C@H](n2cc3cc(NC(=O)c4cncc(C#N)c4)c(OC(F)(F)F)cc3n2)CC1)C1CCN(c2cccc3c2n(C)c(=O)n3C2CCC(=O)NC2=O)CC1 (some centres unmarked) [I-249] | > 200 nM |
| CCn1c(=O)n(C2CCC(=O)NC2=O)c2cccc(N3CCN(C[C@H]4CC[C@H](n5cc6cc(NC(=O)c7cccc(C(F)(F)F)n7)c(OC)cc6n5)CC4)CC3)c21 (some centres unmarked) [I-253] | < 10 nM |
| COc1cc2nn([C@H]3CC[C@H](CN4CCCN(c5cccc6c5n(C)c(=O)n6C5CCC(=O)NC5=O)CC4)CC3)cc2cc1NC(=O)c1cccc(C(F)(F)F)n1 (some centres unmarked) [I-255] | < 10 nM |
| COc1cc2nn([C@H]3CC[C@H](CN4CCN(c5cccc6c(N7CCC(=O)NC7=O)cncc56)[C@H](C)C4)CC3)cc2cc1NC(=O)c1cccc(C(F)(F)F)n1 [I-256] | < 10 nM |
| C[C@@H]1CN(C[C@H]2CC[C@H](n3cc4cc(NC(=O)c5cccc(C(F)(F)F)n5)c(C(C)(C)O)cc4n3)CC2)CCN1c1cccc2c(N3CCC(=O)NC3=O)cncc12 [I-257] | < 10 nM |
| COc1cc2nn([C@H]3CC[C@H](CN4C5CC4CN(c4cccc6c4n(C)c(=O)n6C4CCC(=O)NC4=O)C5)CC3)cc2cc1NC(=O)c1cncc(C#N)c1 (some centres unmarked) [I-258] | > 200 nM |
| COc1cc2nn([C@H]3CC[C@H](CN4CCN(c5cccc6c(N7CCC(=O)NC7=O)cncc56)CC4)CC3)cc2cc1NC(=O)c1cncc(C#N)c1 [I-259] | 10 to 50 nM |
| Cc1cc2nn([C@H]3CC[C@H](CN4CCN(c5cccc6c(N7CCC(=O)NC7=O)cncc56)CC4)CC3)cc2cc1NC(=O)c1cccc(C(F)(F)F)n1 [I-261] | 10 to 50 nM |
| COc1cc2nn([C@H]3CC[C@H](CN4C5CCC4CN(c4cccc6c4n(C)c(=O)n6C4CCC(=O)NC4=O)C5)CC3)cc2cc1NC(=O)c1cncc(C#N)c1 (some centres unmarked) [I-262] | < 10 nM |

| SMILES | DC50 |
| --- | --- |
| CN(CCCN(C)[C@H]1C[C@H](Nc2cccc3c2C(=O)N(C2CCC(=O)NC2=O)C3=O)C1)C[C@H]1CC[C@H](n2cc3cc(NC(=O)c4cccc(C(F)(F)F)n4)c(C(C)(C)O)cc3n2)CC1 (some centres unmarked) [I-263] | 10 to 50 nM |
| COc1cc2nn([C@H]3CC[C@H](CN4CC=C(c5cccc6c5n(C)c(=O)n6C5CCC(=O)NC5=O)C4)CC3)cc2cc1NC(=O)c1cccc(C(F)(F)F)n1 (some centres unmarked) [I-266] | < 10 nM |
| CC(C)Nc1cc(-n2ccc3cc(F)cnc32)ncc1C(=O)N[C@H]1CC[C@H](CN2CCN(c3ccc4c(c3)n(C)c(=O)n4C3CCC(=O)NC3=O)CC2)CC1 (some centres unmarked) [I-267] | > 200 nM |
| COc1cc2nn([C@H]3CC[C@H](CN4CCN(C[C@H]5C[C@H](c6cccc7c(N8CCC(=O)NC8=O)cncc76)C5)CC4)CC3)cc2cc1NC(=O)c1cccc(C(F)(F)F)n1 [I-285] | < 10 nM |
| COc1cncc(C(=O)Nc2cc3cn([C@H]4CC[C@H](CN5CCN(c6cccc7c6n(C)c(=O)n7C6CCC(=O)NC6=O)CC5)CC4)nc3cc2OC)c1 (some centres unmarked) [I-287] | < 10 nM |
| N#Cc1cc2nn([C@H]3CC[C@H](CN4CCN(c5cccc6c(N7CCC(=O)NC7=O)cncc56)CC4)CC3)cc2cc1NC(=O)c1cccc(C(F)(F)F)n1 [I-288] | 10 to 50 nM |
| COc1cc2nn([C@H]3CC[C@H](CN4CCCN(c5cccc6c(N7CCC(=O)NC7=O)cncc56)CC4)CC3)cc2cc1NC(=O)c1cncc(C#N)c1 [I-289] | > 200 nM |
| CC(C)Nc1cc(-n2ccc3cc(F)cnc32)ncc1C(=O)N[C@H]1CC[C@H](CN2CCN(c3cccc4c3n(C)c(=O)n4C3CCC(=O)NC3=O)CC2)CC1 (some centres unmarked) [I-290] | 10 to 50 nM |
| COc1cc2nn([C@H]3CC[C@H](CN4CC[C@@H](c5cccc6c(N7CCC(=O)NC7=O)cncc56)C4)CC3)cc2cc1NC(=O)c1cccc(C(F)(F)F)n1 [I-291] | 10 to 50 nM |
| O=C1CCN(c2cncc3c(C4CCN(C[C@H]5CC[C@H](n6cc7cc(NC(=O)c8cccc(C(F)(F)F)n8)c(C(F)F)cc7n6)CC5)CC4)cccc23)C(=O)N1 [I-293] | < 10 nM |
| CCOc1cc2nn([C@H]3CC[C@H](CN4CCN(c5cccc6c5n(C)c(=O)n6C5CCC(=O)NC5=O)CC4)CC3)cc2cc1NC(=O)c1cccc(C(F)(F)F)n1 (some centres unmarked) [I-294] | 10 to 50 nM |
| COc1ccc2c(c1N1CCN(C[C@H]3CC[C@H](n4cc(-c5cnc(-n6ccc7cc(C#N)cnc76)cc5NC(C)C)nn4)CC3)CC1)n(C)c(=O)n2C1CCC(=O)NC1=O (some centres unmarked) [I-295] | 10 to 50 nM |
| Cn1c(=O)n(C2CCC(=O)NC2=O)c2cccc(N3CCN(C[C@H]4CC[C@H](n5cc6cc(NC(=O)c7cccc(C(F)(F)F)n7)c(C7CC7)cc6n5)CC4)CC3)c21 (some centres unmarked) [I-296] | 10 to 50 nM |
| COc1cc2nn([C@H]3CC[C@H](CN4CCN(c5cccc6c5n(C)c(=O)n6C5CCC(=O)NC5=O)CC4)CC3)cc2cc1NC(=O)c1cncc(C(F)(F)F)n1 (some centres unmarked) [I-297] | < 10 nM |
| COc1cc2nn([C@H]3CC[C@H](CN4CCN(c5cccc6c5n(C)c(=O)n6C5CCC(=O)NC5=O)CC4)CC3)cc2cc1NC(=O)c1ccnc(C(F)(F)F)n1 (some centres unmarked) [I-298] | < 10 nM |
| COc1cc2nn([C@H]3CC[C@H](CN4CCN(c5cccc6c(N7CCC(=O)NC7=O)cncc56)CC4)CC3)cc2cc1NC(=O)c1cncc(C(F)(F)F)n1 [I-299] | < 10 nM |
| COc1cc2nn([C@H]3CC[C@H](CN4CCN(c5cccc6c(N7CCC(=O)NC7=O)cncc56)CC4)CC3)cc2cc1NC(=O)c1ccnc(C(F)(F)F)n1 [I-300] | 10 to 50 nM |
| Cc1cc2nn([C@H]3CC[C@H](CN4CCN(c5cccc6c5n(C)c(=O)n6C5CCC(=O)NC5=O)C[C@@H]4C)CC3)cc2cc1NC(=O)c1cccc(C(F)(F)F)n1 (some centres unmarked) [I-301] | < 10 nM |
| Cc1cc2nn([C@H]3CC[C@H](CN4C[C@@H]5C[C@H]4CN5c4cccc5c4n(C)c(=O)n5C4CCC(=O)NC4=O)CC3)cc2cc1NC(=O)c1cccc(C(F)(F)F)n1 (some centres unmarked) [I-303] | < 10 nM |
| Cc1cc2nn([C@H]3CC[C@H](CN4CCN(c5cccc6c5n(C5CC5)c(=O)n6C5CCC(=O)NC5=O)CC4)CC3)cc2cc1NC(=O)c1cccc(C(F)(F)F)n1 (some centres unmarked) [I-304] | 10 to 50 nM |
| Cc1cc2nn([C@H]3CC[C@H](CN4CCN(c5cccc6c5n(C)c(=O)n6C5CCC(=O)NC5=O)CC4(C)C)CC3)cc2cc1NC(=O)c1cccc(C(F)(F)F)n1 (some centres unmarked) [I-305] | 10 to 50 nM |
| COc1cc2nn([C@H]3CC[C@H](CN4CCN(c5cccc6c5n(C)c(=O)n6C5CCC(=O)NC5=O)CC4(C)C)CC3)cc2cc1NC(=O)c1cccc(C(F)(F)F)n1 (some centres unmarked) [I-306] | 10 to 50 nM |
| CSc1cc2nn([C@H]3CC[C@H](CN4CCN(c5cccc6c5n(C)c(=O)n6C5CCC(=O)NC5=O)CC4)CC3)cc2cc1NC(=O)c1cccc(C(F)(F)F)n1 (some centres unmarked) [I-307] | < 10 nM |
